Reference: patent US10633389B2, “CARM1 inhibitors and uses thereof” (Epizyme, Inc., priority 2013, dated 2020)

Tested on: asymmetric di-methyl PABP1 in RKO cells
Assay: RKO methylation assay, In Cell Western (ICW) for asymmetric di-methyl PABP1
Type: cell-based
Conditions: Homo sapiens, RKO, Cellular potencies, ICW PABP1me2a
Outline: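 RKO cells treated with compound for 48 h at 37 °C, then fixed, permeabilized and immunostained for asymmetric di-methyl PABP1, with DRAQ5 as DNA stain. Infrared 700/800 nm signal ratio normalized to DMSO and 20 μM reference-compound controls; IC50 from triplicate wells.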

Compound	IC50
CNC[C@@H](O)COc1ccc(Cl)c(-c2nc(N[C@@H]3CO[C@@H](C)C3)c(C)c(-c3c(C)noc3C)n2)c1 [Example 162-3]	< 5 µM
CNCC(O)COc1cccc(-c2nc(N[C@@H]3CC[C@H](O)C3)c(C)c(-c3c(C)noc3C)n2)c1 (some centres unmarked) [Example 163-1a]	< 5 µM
CNC[C@@H](O)COc1ccc(Cl)c(-c2nc(-c3c(C)noc3C)c(C)c(N3CC(CO)(CO)C3)n2)c1 [Example 163-3]	5 to 10 µM
CNCC(O)COc1cccc(-c2nc(-c3c(C)noc3C)c(C)c(N3C[C@@H](C)O[C@@H](C)C3)n2)c1 (some centres unmarked) [Example 164-1a]	< 5 µM
CNC[C@@H](O)COc1ccc(F)c(-c2nc(-c3c(C)noc3C)c(C)c(N3Cc4cc(F)cnc4C3)n2)c1 [Example 164-3]	< 5 µM
CNCC(O)COc1cccc(-c2nc(-c3c(C)noc3C)cc(N3CCN(n4c(C)nnc4C)CC3)n2)c1 (centres unmarked) [Example 165-1a]	< 5 µM
CNCC(O)COc1cccc(-c2nc(-c3c(C)noc3C)cc(N3CCN(C4CCOCC4)CC3)n2)c1 (centres unmarked) [Example 166-1a]	< 5 µM
CCS(=O)(=O)N1CCCC(CNc2nc(-c3cccc(OCC(O)CNC)c3)nc(-c3c(C)noc3C)c2C)C1 (centres unmarked) [Example 167-1a]	< 5 µM
CNC[C@@H](O)COc1ccc(Cl)c(-c2nc(N[C@@H]3CCN(C4CC4)C[C@@H]3F)c(C)c(-c3c(C)noc3C)n2)c1 [Example 167-3]	< 5 µM
CCS(=O)(=O)N1CCC(Nc2nc(-c3cccc(OCC(O)CNC)c3)nc(-c3c(C)noc3C)c2C)CC1 (centres unmarked) [Example 168-1a]	< 5 µM
CNC[C@@H](O)COc1ccc(Cl)c(-c2nc(-c3c(C)noc3C)c(Cl)c(N3Cc4cccnc4C3)n2)c1 [Example 168-3]	< 5 µM
CNC[C@H](O)COc1cccc(-c2nc(NC3CCN(C(=O)OC)CC3)c(C)c(-c3c(C)noc3C)n2)c1 [Example 169-1a]	< 5 µM
CNC[C@@H](O)COc1ccc(Cl)c(-c2nc(N[C@H]3CCN(C(=O)OC)[C@@H](C)C3)c(C)c(-c3c(C)noc3C)n2)c1 [Example 169-3]	< 5 µM
CNC[C@@H](O)COc1cccc(-c2nc(NC3CCN(C(=O)OC)CC3)c(C)c(-c3c(C)noc3C)n2)c1 [Example 170-1a]	< 5 µM
CNC[C@@H](O)COc1ccc(Cl)c(-c2nc(N[C@H]3CCN(C4CC4)[C@@H](C)C3)c(C)c(-c3c(C)noc3C)n2)c1 [Example 170-3]	< 5 µM
CNCC(O)COc1cccc(-c2nc(NCC3CN(C)CCO3)c(C)c(-c3c(C)noc3C)n2)c1 (centres unmarked) [Example 171-1a]	< 5 µM
Cc1noc(C)c1-c1nc(-c2cc(OC[C@H](O)CN(C)C)ccc2Cl)nc(N[C@H]2CCN(C3CC3)[C@@H](C)C2)c1C [Example 171-3]	< 5 µM
CCOC(=O)N1CCC(N(C)c2cc(-c3c(C)noc3C)nc(-c3cccc(OCC(O)CNC)c3)n2)CC1 (centres unmarked) [Example 172-1a]	< 5 µM
CNC[C@@H](O)COc1ccc(Cl)c(-c2nc(N[C@H]3C[C@@H](C)O[C@@H](C)C3)c(C)c(-c3c(C)noc3C)n2)c1 [Example 172-3]	< 5 µM
CNC[C@@H](O)COc1ccc(Cl)c(-c2nc(N[C@H]3C[C@@H](C)O[C@@H](C)C3)c(Cl)c(-c3c(C)noc3C)n2)c1 [Example 173-3]	< 5 µM
CNCC(O)COc1cccc(-c2nc(-c3c(C)noc3C)cc(N3CCN(CC(F)F)[C@H](C)C3)n2)c1 (some centres unmarked) [Example 174-1a]	< 5 µM
CNC[C@@H](O)COc1ccc(Cl)c(-c2nc(-c3c(C)noc3C)c(C)c(N3CCc4ccncc43)n2)c1 [Example 174-3]	< 5 µM
CNCC(O)COc1cccc(-c2nc(-c3c(C)noc3C)cc(N3CCN(C)[C@H](C)C3)n2)c1 (some centres unmarked) [Example 175-1a]	5 to 10 µM
CNC[C@@H](O)COc1ccc(Cl)c(-c2nc(-c3c(C)noc3C)c(C)c(N3CC4(CCN(C(=O)OC)C4)C3)n2)c1 [Example 175-3]	< 5 µM

Compound	IC50
CNCC(O)COc1cccc(-c2nc(-c3c(C)noc3C)c(C)c(N3CCO[C@@H](CN(C)C(=O)N(C)C)C3)n2)c1 (some centres unmarked) [Example 176-1a]	< 5 µM
CNC[C@@H](O)COc1ccc(Cl)c(-c2nc(-c3c(C)noc3C)c(C)c(N3CC4(CCN(C5CC5)C4)C3)n2)c1 [Example 176-3]	< 5 µM
CNCC(O)COc1cccc(-c2nc(-c3c(C)noc3C)c(C)c(N3CCC[C@@H](NC)C3)n2)c1 (some centres unmarked) [Example 177-1a]	5 to 10 µM
CNC[C@@H](O)COc1ccc(Cl)c(-c2nc(-c3c(C)noc3C)c(C)c(N3CCC4(CN(C(=O)OC)C4)C3)n2)c1 [Example 177-3]	< 5 µM
CC[C@H]1CN(c2nc(-c3cccc(OCC(O)CNC)c3)nc(-c3c(C)noc3C)c2C)CCN1C1CC1 (some centres unmarked) [Example 178-1a]	10 to 20 µM
CNC[C@@H](O)COc1ccc(Cl)c(-c2nc(-c3c(C)noc3C)c(C)c(N3CCC4(C3)CN(C3CC3)C4)n2)c1 [Example 178-3]	< 5 µM
CNCC(O)COc1cccc(-c2nc(-c3c(C)noc3C)c(C)c(N3CCC4(CC3)CN(S(C)(=O)=O)C4)n2)c1 (centres unmarked) [Example 179-1a]	< 5 µM
CNC[C@@H](O)COc1ccc(Cl)c(-c2nc(N[C@@H]3CO[C@H](C)C3)c(C)c(-c3c(C)noc3C)n2)c1 [Example 179-3]	< 5 µM
CNC[C@@H](O)COc1ccc(Cl)c(-c2nc(N[C@@H]3CO[C@H](C)C3)c(Cl)c(-c3c(C)noc3C)n2)c1 [Example 180-3]	< 5 µM
CNCC(O)COc1cccc(-c2nc(OC3CCOCC3)c(C)c(-c3c(C)noc3C)n2)c1 (centres unmarked) [Example 181-1a]	< 5 µM
CNC[C@@H](O)COc1ccc(Cl)c(-c2nc(N[C@@H]3CO[C@@H](C)C3)c(Cl)c(-c3c(C)noc3C)n2)c1 [Example 181-3]	< 5 µM
CNCC(O)COc1cccc(-c2nc(OCC3CCOCC3)c(C)c(-c3c(C)noc3C)n2)c1 (centres unmarked) [Example 182-1a]	< 5 µM
CNC[C@@H](O)COc1ccc(Cl)c(-c2nc(N[C@@H]3C[C@@H](C)O[C@@H](C)C3)c(C)c(-c3c(C)noc3C)n2)c1 [Example 182-3]	< 5 µM
CNC[C@@H](O)COc1cccc(-c2nc(NCC3CCOCC3)c(C)c(-c3c(C)noc3C)n2)c1 [Example 183-1a]	< 5 µM
CNC[C@@H](O)COc1ccc(Cl)c(-c2nc(N[C@@H]3C[C@@H](C)O[C@@H](C)C3)c(Cl)c(-c3c(C)noc3C)n2)c1 [Example 183-3]	< 5 µM
CNCC(O)COc1cccc(-c2nc(NCC3CCN(C(=O)OC)CC3)c(C)c(-c3c(C)noc3C)n2)c1 (centres unmarked) [Example 184-1a]	< 5 µM
CNC[C@@H](O)COc1ccc(Cl)c(-c2nc(-c3c(C)noc3C)c(C)c(N3CC(F)(F)C3)n2)c1 [Example 184-3]	< 5 µM
CNCC(O)COc1cccc(-c2nc(NC3CCN(C4CC4)CC3)c(C)c(-c3c(C)noc3C)n2)c1 (centres unmarked) [Example 185-1a]	< 5 µM
CNC[C@@H](O)COc1ccc(F)c(-c2nc(-c3c(C)noc3C)c(C)c(N3Cc4cc(Cl)cnc4C3)n2)c1 [Example 185-3]	< 5 µM
CNCC(O)COc1cccc(-c2nc(NC3CCN(C(=O)OC)C3)c(C)c(-c3c(C)noc3C)n2)c1 (centres unmarked) [Example 186-1a]	< 5 µM
CNC[C@@H](O)COc1ccc(Cl)c(-c2nc(-c3c(C)noc3C)c(C)c(N3C[C@H]4COC[C@H]4C3)n2)c1 [Example 186-3]	< 5 µM
CNCC(O)COc1ccc(Cl)c(-c2nc(NC3CCN(C(=O)OC)CC3)c(Cl)c(-c3c(C)noc3C)n2)c1 (centres unmarked) [Example 187-1a]	< 5 µM
CNC[C@@H](O)COc1ccc(Cl)c(-c2nc(-c3c(C)noc3C)c(C)c(N3CCOC3=O)n2)c1 [Example 187-3]	10 to 20 µM
